In the NIST ThermoML archive (doi:10.1016/j.tca.2011.06.003):

Assay: xn = mol fraction of the nth substance listed
Settings: 101 kPa, Liquid; for speed of sound: Sing-around technique in a fixed-path interferometer; for mass density: Vibrating tube method

NCCNCCN [di(2-aminoethyl)amine] + CC(C)CO
Settings	mass density [kg/m3]	speed of sound [m/s]	viscosity [mPa·s]
293.15 K, x1 = 0.054	815.237	1243	–
293.15 K, x1 = 0.1043	826.644	1275.2	–
293.15 K, x1 = 0.1529	836.817	1305.2	–
293.15 K, x1 = 0.2068	847.162	1337.4	–
293.15 K, x1 = 0.2535	855.512	1364.9	–
293.15 K, x1 = 0.305	863.833	1390.5	–
293.15 K, x1 = 0.4057	878.879	1439.4	–
293.15 K, x1 = 0.5036	892.182	1484.7	–
293.15 K, x1 = 0.6053	905.319	1531.6	–
293.15 K, x1 = 0.7048	919.507	1570.3	–
293.15 K, x1 = 0.8098	929.46	1613.2	–
293.15 K, x1 = 0.8522	933.916	1630.9	–
293.15 K, x1 = 0.9074	939.952	1653.2	–
293.15 K, x1 = 0.9537	944.995	1671.9	–
298.15 K, x1 = 0.054	811.313	1226.2	4.027
298.15 K, x1 = 0.1043	822.66	1258	4.548
298.15 K, x1 = 0.1529	832.792	1287.9	5.094
298.15 K, x1 = 0.2068	843.096	1319.8	5.514
298.15 K, x1 = 0.2535	851.38	1345.4	5.73
298.15 K, x1 = 0.305	859.744	1372.5	5.908
298.15 K, x1 = 0.4057	874.785	1421.6	6.024
298.15 K, x1 = 0.5036	888.088	1466.7	5.962
298.15 K, x1 = 0.6053	901.203	1511.4	5.795
298.15 K, x1 = 0.7048	915.398	1551.7	5.661
298.15 K, x1 = 0.8098	925.283	1594.3	5.603
298.15 K, x1 = 0.8522	929.73	1611.7	5.574
298.15 K, x1 = 0.9074	935.74	1633.9	5.541
298.15 K, x1 = 0.9537	940.776	1651.9	5.539
303.15 K, x1 = 0.054	807.355	1209.3	3.292
303.15 K, x1 = 0.1043	818.653	1241.1	3.707
303.15 K, x1 = 0.1529	828.735	1270.7	4.092
303.15 K, x1 = 0.2068	839.013	1302.4	4.365
303.15 K, x1 = 0.2535	847.289	1328.1	4.521
303.15 K, x1 = 0.305	855.641	1355.1	4.656
303.15 K, x1 = 0.4057	870.683	1404.1	4.762
303.15 K, x1 = 0.5036	883.968	1449.2	4.732
303.15 K, x1 = 0.6053	897.071	1493.2	4.695
303.15 K, x1 = 0.7048	911.268	1533.6	4.652
303.15 K, x1 = 0.8098	921.103	1575.5	4.575
303.15 K, x1 = 0.8522	925.54	1592.9	4.525
303.15 K, x1 = 0.9074	931.531	1614.5	4.508
303.15 K, x1 = 0.9537	936.554	1632.6	4.49
308.15 K, x1 = 0.054	803.363	1192.6	2.815
308.15 K, x1 = 0.1043	814.618	1224.2	3.146
308.15 K, x1 = 0.1529	824.666	1254	3.463
308.15 K, x1 = 0.2068	834.918	1285.4	3.654
308.15 K, x1 = 0.2535	843.178	1310.6	3.768
308.15 K, x1 = 0.305	851.532	1337.4	3.855
308.15 K, x1 = 0.4057	866.568	1386.9	3.927
308.15 K, x1 = 0.5036	879.851	1431.7	3.966
308.15 K, x1 = 0.6053	892.938	1475.8	3.919
308.15 K, x1 = 0.7048	907.117	1515.9	3.899
308.15 K, x1 = 0.8098	916.922	1556.7	3.817
308.15 K, x1 = 0.8522	921.354	1574.1	3.807
308.15 K, x1 = 0.9074	927.328	1595.3	3.789
308.15 K, x1 = 0.9537	932.338	1613.3	3.78
313.15 K, x1 = 0.054	799.326	1175.8	–
313.15 K, x1 = 0.1043	810.545	1208	–
313.15 K, x1 = 0.1529	820.566	1237.8	–
313.15 K, x1 = 0.2068	830.795	1269.1	–
313.15 K, x1 = 0.2535	839.045	1294.6	–
313.15 K, x1 = 0.305	847.399	1321.3	–
313.15 K, x1 = 0.4057	862.439	1371	–
313.15 K, x1 = 0.5036	875.718	1414.9	–
313.15 K, x1 = 0.6053	888.795	1459.1	–
313.15 K, x1 = 0.7048	902.896	1499.5	–
313.15 K, x1 = 0.8098	912.74	1538.9	–
313.15 K, x1 = 0.8522	917.161	1555.8	–
313.15 K, x1 = 0.9074	923.121	1576.3	–
313.15 K, x1 = 0.9537	928.116	1593.7	–

NCCNCCN [di(2-aminoethyl)amine] + CC(C)O
Settings	mass density [kg/m3]	speed of sound [m/s]	viscosity [mPa·s]
293.15 K, x1 = 0.0534	803.892	1206.4	–
293.15 K, x1 = 0.1022	818.972	1244.9	–
293.15 K, x1 = 0.1556	830.953	1283.2	–
293.15 K, x1 = 0.2053	842.389	1318.6	–
293.15 K, x1 = 0.2541	852.667	1350.5	–
293.15 K, x1 = 0.3083	863.147	1383.9	–
293.15 K, x1 = 0.4044	880.002	1438.7	–
293.15 K, x1 = 0.5025	894.43	1488.6	–
293.15 K, x1 = 0.6122	909.336	1538.2	–
293.15 K, x1 = 0.711	921.252	1583.2	–
293.15 K, x1 = 0.8021	930.895	1618.9	–
293.15 K, x1 = 0.8555	936.343	1638	–
293.15 K, x1 = 0.9092	941.621	1658.5	–
293.15 K, x1 = 0.953	945.719	1673.3	–
298.15 K, x1 = 0.0532	–	–	2.514
298.15 K, x1 = 0.0534	799.63	1188.7	–
298.15 K, x1 = 0.1022	814.391	1227.2	2.884
298.15 K, x1 = 0.1556	826.675	1265.5	3.313
298.15 K, x1 = 0.2053	838.104	1300.9	3.628
298.15 K, x1 = 0.2541	848.377	1332.6	3.97
298.15 K, x1 = 0.3083	858.864	1365.9	4.268
298.15 K, x1 = 0.4044	875.743	1420.7	4.708
298.15 K, x1 = 0.5025	890.185	1470	4.984
298.15 K, x1 = 0.6122	905.106	1518.9	5.192
298.15 K, x1 = 0.711	917.035	1563.1	5.223
298.15 K, x1 = 0.8021	926.667	1599.5	5.286
298.15 K, x1 = 0.8555	932.115	1618.5	5.383
298.15 K, x1 = 0.9092	937.389	1638.7	5.441
298.15 K, x1 = 0.953	941.486	1653.4	5.54
303.15 K, x1 = 0.0532	–	–	2.087
303.15 K, x1 = 0.0534	795.321	1171.2	–
303.15 K, x1 = 0.1022	809.803	1209.5	2.388
303.15 K, x1 = 0.1556	822.362	1247.7	2.697
303.15 K, x1 = 0.2053	833.79	1282.9	2.976
303.15 K, x1 = 0.2541	844.065	1314.6	3.217
303.15 K, x1 = 0.3083	854.559	1347.8	3.423
303.15 K, x1 = 0.4044	871.471	1402.2	3.721
303.15 K, x1 = 0.5025	885.922	1452.9	3.901
303.15 K, x1 = 0.6122	900.866	1503.2	4.08
303.15 K, x1 = 0.711	912.782	1543	4.184
303.15 K, x1 = 0.8021	922.433	1579.1	4.264
303.15 K, x1 = 0.8555	927.887	1599	4.357
303.15 K, x1 = 0.9092	933.158	1619	4.423
303.15 K, x1 = 0.953	937.25	1634.5	4.47
308.15 K, x1 = 0.0532	–	–	1.858
308.15 K, x1 = 0.0534	790.957	1153.7	–
308.15 K, x1 = 0.1022	805.422	1191.8	2.064
308.15 K, x1 = 0.1556	818.019	1230	2.315
308.15 K, x1 = 0.2053	829.45	1265.1	2.526
308.15 K, x1 = 0.2541	839.731	1296.8	2.708
308.15 K, x1 = 0.3083	850.238	1329.7	2.875
308.15 K, x1 = 0.4044	867.103	1383.3	3.121
308.15 K, x1 = 0.5025	881.653	1432.7	3.296
308.15 K, x1 = 0.6122	896.616	1483.5	3.442
308.15 K, x1 = 0.711	908.535	1525.3	3.539
308.15 K, x1 = 0.8021	918.202	1561.5	3.608
308.15 K, x1 = 0.8555	923.66	1580.4	3.683
308.15 K, x1 = 0.9092	928.927	1599.6	3.734
308.15 K, x1 = 0.953	933.022	1615.1	3.771
313.15 K, x1 = 0.0534	786.529	1136.1	–
313.15 K, x1 = 0.1022	801.012	1174.3	–
313.15 K, x1 = 0.1556	813.627	1212.7	–
313.15 K, x1 = 0.2053	825.068	1247.5	–
313.15 K, x1 = 0.2541	835.36	1278.6	–
313.15 K, x1 = 0.3083	845.885	1311.4	–
313.15 K, x1 = 0.4044	862.786	1365.6	–
313.15 K, x1 = 0.5025	877.353	1415.7	–
313.15 K, x1 = 0.6122	892.409	1467	–
313.15 K, x1 = 0.711	904.278	1509.1	–
313.15 K, x1 = 0.8021	913.964	1543.4	–
313.15 K, x1 = 0.8555	919.421	1562.1	–
313.15 K, x1 = 0.9092	924.691	1580.8	–
313.15 K, x1 = 0.953	928.787	1595.2	–
